Test systems include SK-MEL-28 melanoma; 786-0 renal; OVCAR-8 ovarian; OVCAR-3 ovarian; COLO 205 colon; UACC-257 melanoma; TK-10 renal; SNB-75 CNS.
Common to all, as to test: DTP human tumour cell line panel, 48 h

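Test compounds were applied to cells in 96-well plates for 48 hours at 5 doses. GI50: concentration for 50% inhibition of growth. TGI: total growth inhibition.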

One may read the GI50 as the concentration at which growth is held to half of that of the control. What is called TGI is the concentration giving total growth inhibition. With `C[C@@H]1Cc2cc(O)ccc2[C@H]2CC[C@]3(C)/C(=C/COCCN(C)C)CC[C@H]3[C@H]12` (tested in a mixture with another compound), the GI50 in the assay on SK-MEL-28 melanoma was 0.456 µM; in the assay on 786-0 renal, 0.198 µM; in the assay with OVCAR-8 ovarian it was 0.18 µM; in the assay with OVCAR-3 ovarian, 0.18 µM; with COLO 205 colon, 0.363 µM; in the assay with UACC-257 melanoma, 0.495 µM. The GI50 in the assay on TK-10 renal is 0.209 µM; in the assay with SNB-75 CNS it was 0.235 µM. The TGI with SK-MEL-28 melanoma stood at 1.46 µM; in the assay on 786-0 renal it was 0.618 µM; in the assay with OVCAR-8 ovarian it was 0.364 µM; in the assay on OVCAR-3 ovarian, 0.344 µM; in the assay on COLO 205 colon, 1.03 µM; in the assay with UACC-257 melanoma it was 2.01 µM. Moreover, the TGI in the assay on TK-10 renal is 0.461 µM; with SNB-75 CNS it was 0.755 µM.
For `Oc1cccc2c1NCCC2`, the GI50 in the assay with SK-MEL-28 melanoma is 2.19 µM; in the assay on 786-0 renal, 0.734 µM; with OVCAR-8 ovarian it was 0.129 µM; in the assay on OVCAR-3 ovarian it was 0.0425 µM; in the assay on COLO 205 colon, 2.84 µM; with UACC-257 melanoma, 1.12 µM. The results for the GI50 in the assay on TK-10 renal and in the assay with SNB-75 CNS were 1.96 µM and 0.159 µM, respectively. Also, the TGI was greater than 100 µM in the assay with SK-MEL-28 melanoma; greater than 100 µM with 786-0 renal; 22.3 µM in the assay with OVCAR-8 ovarian; 2.59 µM in the assay on OVCAR-3 ovarian; 12.9 µM with COLO 205 colon; 5.83 µM in the assay on UACC-257 melanoma. In addition, the TGI in the assay on TK-10 renal and with SNB-75 CNS was greater than 100 µM in each case.
On to `COc1ccc(/C=C(\C)[N+](=O)[O-])cc1OC`, for which the GI50 was 1.71 µM in the assay on SK-MEL-28 melanoma; 1.93 µM with 786-0 renal; 2.61 µM in the assay on OVCAR-8 ovarian; 1.87 µM in the assay on OVCAR-3 ovarian; 2.23 µM in the assay with COLO 205 colon; 1.88 µM in the assay with UACC-257 melanoma. The GI50 in the assay with TK-10 renal was 1.55 µM; with SNB-75 CNS, 2.2 µM. Further, the TGI amounted to 3.44 µM in the assay with SK-MEL-28 melanoma; 3.57 µM in the assay on 786-0 renal; 6.29 µM with OVCAR-8 ovarian; 3.29 µM with OVCAR-3 ovarian; 4.46 µM in the assay on COLO 205 colon; 3.5 µM with UACC-257 melanoma. Moreover, the TGI was 3.12 µM in the assay on TK-10 renal and 12.2 µM in the assay on SNB-75 CNS.
For `CN1CCN(CCCCCN=c2cc3c(=O)n(CCCCCN4CCN(C)CC4)c(=O)c4c(NCCCCCN5CCN(C)CC5)cc5c(O)n(CCCCCN6CCN(C)CC6)c(=O)c2c5c4-3)CC1`, the GI50 with SK-MEL-28 melanoma is 2.96 µM; in the assay on 786-0 renal, greater than 100 µM; in the assay on OVCAR-8 ovarian, 3.92 µM; in the assay on OVCAR-3 ovarian, 3.23 µM; in the assay with COLO 205 colon, 2.31 µM; with UACC-257 melanoma, 2.6 µM. Further, the values for the GI50 in the assay with TK-10 renal and with SNB-75 CNS were 10.6 µM and 2.66 µM, respectively. For the same compound, the TGI in the assay with SK-MEL-28 melanoma is 8.14 µM; with 786-0 renal, greater than 100 µM; in the assay with OVCAR-8 ovarian, 17.2 µM; in the assay with OVCAR-3 ovarian, 9.92 µM; with COLO 205 colon it was 8.07 µM; in the assay with UACC-257 melanoma, 6.56 µM. Further, the TGI came out at 77.2 µM in the assay with TK-10 renal and 10.2 µM with SNB-75 CNS.
For the compound `FC(F)(F)c1cccc(-c2nn3ncccc3c2-c2ccnc(Nc3ccc4c(c3)OCCO4)n2)c1`, the GI50 is greater than 25 µM in the assay on SK-MEL-28 melanoma; 8.35 µM with 786-0 renal; 10.6 µM in the assay with OVCAR-8 ovarian; 13.7 µM in the assay on OVCAR-3 ovarian; 14.1 µM in the assay with COLO 205 colon; 9.5 µM with UACC-257 melanoma. Besides, the GI50 was 8.49 µM with TK-10 renal and greater than 18.6 µM with SNB-75 CNS. The concentration for total growth inhibition (TGI) in the assay on SK-MEL-28 melanoma, in the assay on 786-0 renal, in the assay with OVCAR-8 ovarian, in the assay on OVCAR-3 ovarian, with COLO 205 colon and in the assay on UACC-257 melanoma was greater than 25 µM each time. Moreover, the TGI with TK-10 renal and in the assay with SNB-75 CNS was greater than 25 µM throughout.
With `CCOC(=O)c1cc2c(cc1Cl)SC(=Nc1ccccc1)N(S(=O)(=O)c1ccc(Br)s1)S2(=O)=O`, the GI50 is 24.1 µM with SK-MEL-28 melanoma; 17.5 µM in the assay on 786-0 renal; 17 µM in the assay on OVCAR-8 ovarian; 12.2 µM with OVCAR-3 ovarian; 25.2 µM with COLO 205 colon; 13.5 µM with UACC-257 melanoma. For the same compound, the GI50 is 15.9 µM in the assay on TK-10 renal and 23.4 µM with SNB-75 CNS. In addition, the TGI with SK-MEL-28 melanoma was 64.5 µM; with 786-0 renal it was 32.6 µM; in the assay with OVCAR-8 ovarian, 39.3 µM; in the assay with OVCAR-3 ovarian, 24.7 µM; in the assay on COLO 205 colon it was greater than 100 µM; in the assay with UACC-257 melanoma, 30.4 µM. Moreover, the TGI worked out at 30.4 µM in the assay on TK-10 renal and 60.8 µM in the assay on SNB-75 CNS.
As to `Nc1n[nH]c2ccc([C@@H]3Nc4cc5c(cc4[C@H]4C6CCC(C6)[C@@H]34)C(=O)NC5)cc12` (stereo partly specified), the GI50 is 4.17 µM in the assay on SK-MEL-28 melanoma; 0.557 µM in the assay with 786-0 renal; 0.445 µM in the assay on OVCAR-8 ovarian; 0.305 µM in the assay with OVCAR-3 ovarian; 0.326 µM in the assay on COLO 205 colon; greater than 100 µM with UACC-257 melanoma. Further, the figures for the GI50 in the assay on TK-10 renal and in the assay with SNB-75 CNS were 70.1 µM and 0.718 µM, respectively. The TGI with SK-MEL-28 melanoma was greater than 100 µM; with 786-0 renal, greater than 100 µM; in the assay on OVCAR-8 ovarian, greater than 100 µM; in the assay with OVCAR-3 ovarian it was 1.19 µM; in the assay on COLO 205 colon it was 1.7 µM; with UACC-257 melanoma, greater than 100 µM. Moreover, the TGI in the assay on TK-10 renal and in the assay on SNB-75 CNS was greater than 100 µM in each case.
For the compound `Fc1cccc(F)c1C(Nc1nncs1)Nc1nncs1`, the TGI in the assay with SK-MEL-28 melanoma, with 786-0 renal, in the assay with OVCAR-8 ovarian, with OVCAR-3 ovarian, in the assay on COLO 205 colon and in the assay on UACC-257 melanoma was greater than 100 µM in each case. The concentration for total growth inhibition (TGI) in the assay with TK-10 renal and in the assay with SNB-75 CNS was greater than 100 µM throughout.
`O=C1C(OCCOc2ccccc2)=C(OCCOc2ccccc2)C(=O)c2ccccc21`: the GI50 in the assay on SK-MEL-28 melanoma was 16.5 µM; in the assay with 786-0 renal, 34.6 µM; in the assay on OVCAR-8 ovarian, greater than 100 µM; in the assay on OVCAR-3 ovarian, 6.5 µM; in the assay on COLO 205 colon, 41.9 µM; in the assay on UACC-257 melanoma, 3.72 µM. The GI50 with TK-10 renal was greater than 100 µM; with SNB-75 CNS it was 20.1 µM. Further, the concentration for total growth inhibition (TGI) in the assay on SK-MEL-28 melanoma, in the assay on 786-0 renal, with OVCAR-8 ovarian, in the assay with OVCAR-3 ovarian, in the assay on COLO 205 colon and with UACC-257 melanoma was greater than 100 µM each time. Further, the TGI in the assay with TK-10 renal and with SNB-75 CNS was greater than 100 µM in each case.

For the origin of these results see PubChem BioAssay (NCI).
